Target: T1, human TRPM8 (Homo sapiens, UniProt Q7Z2W7)
T1 construct: expressed in transfected cells; host or cells: HEK293
Assay: Menthol-induced Ca2+ influx in HEK293 cells stably expressing human TRPM8
Format: cell-based
Details: 30 microM menthol-induced Ca2+ influx, read-out: IC50 against TRPM8
Description: Measurement of the Menthol-Induced Ca^2+ Influx in HEK293 Cells Stably Expressing Human TRPM8
A cell-based Ca^2+ influx assay using HEK293 cells stably expressing human TRPM8 is used to identify the activity of compounds.
HEK293 cells stably expressing human TRPM8 are grown in T175 flasks at 37° C. in a 5% CO2 humidified incubator to about 80% confluence. Media composition consists of Dulbecco's Modified Eagle Medium (high glucose), 10% fetal calf serum (FCS), 100 units/mLPenicillin, 100 microg/mL Streptomycin and 600 microg/mL Geneticine. At 24 hours prior to assay, cells are seeded in poly-D-lysine coated 384-well plates (BD FALCON) at a density of 30,000 cells per well in culture medium and grown overnight in 5% CO2 at 37° C. On the assay day, growth media is removed and cells are loaded with 0.5 microM Fluo4-AM (Molecular Probes) and 0.005% Pluronic F-127 dissolved in assay buffer (Hank's balanced salt solution (HBSS), 19.4 mM HEPES pH7.4, 2.5 mM Probenecid) for 1 hour at room temperature. After washing with assay buffer, the cells are preincubated with various concentrations of the compounds for 5 min. The changes in intracellular calcium concentration by addition of 30 microM menthol are monitored by the cell imaging technology by Hamamatsu Photonics Functional Drug Screening System (FDSS).
The IC50 values for compounds of the present invention are determined from 11-point dose-response studies. Curves are generated using the average of duplicate wells for each data point. Finally, the IC50 values are calculated with the best-fit dose curve determined by XLfit (ID Business Solutions Ltd.).

T1 sequence (Q7Z2W7 whole entry): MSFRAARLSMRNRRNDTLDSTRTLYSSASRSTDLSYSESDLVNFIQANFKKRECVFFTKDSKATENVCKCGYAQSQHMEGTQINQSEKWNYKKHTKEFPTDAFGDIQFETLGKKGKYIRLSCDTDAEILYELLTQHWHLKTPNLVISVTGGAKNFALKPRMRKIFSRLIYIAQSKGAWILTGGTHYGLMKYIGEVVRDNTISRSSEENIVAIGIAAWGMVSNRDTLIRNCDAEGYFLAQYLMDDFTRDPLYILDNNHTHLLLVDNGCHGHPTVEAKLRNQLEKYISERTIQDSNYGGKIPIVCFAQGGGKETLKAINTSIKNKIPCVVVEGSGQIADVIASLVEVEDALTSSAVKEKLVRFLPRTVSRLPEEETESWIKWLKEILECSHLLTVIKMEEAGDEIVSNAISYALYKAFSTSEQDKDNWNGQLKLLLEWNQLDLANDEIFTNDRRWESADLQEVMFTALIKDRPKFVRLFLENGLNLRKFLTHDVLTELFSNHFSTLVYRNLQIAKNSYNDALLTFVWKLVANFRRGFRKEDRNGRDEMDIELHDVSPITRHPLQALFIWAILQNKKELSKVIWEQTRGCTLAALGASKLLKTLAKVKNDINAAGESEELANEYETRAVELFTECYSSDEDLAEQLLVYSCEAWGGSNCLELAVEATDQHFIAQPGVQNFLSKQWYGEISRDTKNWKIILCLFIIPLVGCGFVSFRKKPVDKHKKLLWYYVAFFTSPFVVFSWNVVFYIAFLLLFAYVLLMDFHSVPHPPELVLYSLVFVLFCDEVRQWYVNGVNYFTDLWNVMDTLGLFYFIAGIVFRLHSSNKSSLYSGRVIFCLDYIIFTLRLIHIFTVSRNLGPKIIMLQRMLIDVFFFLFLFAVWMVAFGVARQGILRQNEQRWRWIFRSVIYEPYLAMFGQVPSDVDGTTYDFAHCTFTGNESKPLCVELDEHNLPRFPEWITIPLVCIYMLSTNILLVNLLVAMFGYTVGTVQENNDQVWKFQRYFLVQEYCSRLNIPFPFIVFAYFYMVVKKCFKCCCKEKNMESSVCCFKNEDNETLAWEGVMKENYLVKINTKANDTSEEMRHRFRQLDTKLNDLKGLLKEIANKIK

Structure (SMILES) | IC50 [µM]
Cc1cc(-n2c(C)cc(C(=O)CN3C(=O)NC4(CCC(F)(F)CC4)C3=O)c2C)no1 [Example 1-1, 3-(2-(2,5-dimethyl-1-(5-methylisoxazol-3-yl)-1H-pyrrol-3-yl)-2-oxoethyl)-8,8-difluoro-1,3-diazaspiro[4.5]decane-2,4-dione] | < 0.1
Cc1cc(-n2c(C)cc(C(=O)CN3C(=O)OC4(CCC(F)(F)CC4)C3=O)c2C)no1 [Example 1-2] | < 0.1
Cc1cc(-n2c(C)cc(C(=O)CN3C(=O)OC4(CCCCC4)C3=O)c2C)no1 [Example 1-3] | < 0.1
Cc1cc(-n2c(C)cc(C(=O)CN3C(=O)OC4(CC5CCC4C5)C3=O)c2C)no1 (centres unmarked) [Example 1-4] | < 0.5
Cc1cc(-n2c(C)cc(C(=O)CN3C(=O)OC4(CCC(C(F)(F)F)CC4)C3=O)c2C)no1 (centres unmarked) [Example 1-5] | < 0.5
CCc1cc(C(=O)CN2C(=O)NC3(CCCCC3)C2=O)c(C)n1-c1cc(C)on1 [Example 1-14] | < 0.5
Cc1nc(C(=O)CN2C(=O)NC3(CCCCC3)C2=O)c(C)n1-c1ccccc1 [Example 2-1] | < 0.1
Cc1nc(C(=O)CN2C(=O)NC3(CCC(F)(F)CC3)C2=O)c(C)n1-c1ccccc1 [Example 2-2] | < 0.1
Cc1nc(C(=O)CN2C(=O)OC3(CCC(F)(F)CC3)C2=O)c(C)n1-c1ccccc1 [Example 2-3] | < 0.1
Cc1nc(C(=O)CN2C(=O)OC3(CCCCC3)C2=O)c(C)n1-c1ccccc1 [Example 2-4] | < 0.1
Cc1nc(C(=O)CN2CC3(CCC(F)(F)CC3)OC2=O)c(C)n1-c1ccccc1 [Example 2-7] | < 0.5
Cc1cccc(-n2c(C)nc(C(=O)CN3C(=O)CC4(CCC(F)(F)CC4)C3=O)c2C)c1 [Example 2-8] | < 0.5
Cc1nc(C(=O)CN2C(=O)NC3(CCC(F)(F)CC3)C2=O)c(C)n1-c1cccc(F)c1 [Example 2-11] | < 0.1
Cc1cccc(-n2c(C)nc(C(=O)CN3C(=O)NC4(CCC(F)(F)CC4)C3=O)c2C)c1 [Example 2-12] | < 0.1
Cc1cccc(-n2c(C)nc(C(=O)CN3C(=O)NC4(CCCCC4)C3=O)c2C)c1 [Example 2-13] | < 0.1
Cc1nc(C(=O)CN2C(=O)NC3(CCC(F)(F)CC3)C2=O)c(C)n1-c1cccc(Cl)c1 [Example 2-14] | < 0.1
Cc1nc(C(=O)CN2C(=O)NC3(CCCCC3)C2=O)c(C)n1-c1cccc(Cl)c1 [Example 2-15] | < 0.1
Cc1cccc(-n2c(C)nc(C(=O)CN3CC4(CCC(F)(F)CC4)OC3=O)c2C)c1 [Example 2-17] | < 0.5
Cc1nc(C(=O)CN2CC3(CCC(F)(F)CC3)OC2=O)c(C)n1-c1cccc(F)c1 [Example 2-18] | < 0.5
Cc1cc(-n2c(C)cc(C(=O)CN3C(=O)NC4(CCC(F)(F)CC4)C3=O)c2C)on1 [Example 3-1] | < 0.1
Cc1cncc(-n2c(C)cc(C(=O)CN3C(=O)NC4(CCC(F)(F)CC4)C3=O)c2C)n1 [Example 3-2] | < 0.1

Structure (SMILES) | IC50 [µM]
Cc1cncc(-n2c(C)cc(C(=O)CN3C(=O)NC4(CCCCC4)C3=O)c2C)n1 [Example 3-3] | < 0.1
Cc1cc(C(=O)CN2C(=O)NC3(CCC(F)(F)CC3)C2=O)c(C)n1-c1ccccc1 [Example 3-4] | < 0.1
Cc1cccc(-n2c(C)cc(C(=O)CN3C(=O)NC4(CCC(F)(F)CC4)C3=O)c2C)c1 [Example 3-5] | < 0.1
Cc1cccc(-n2c(C)cc(C(=O)CN3C(=O)NC4(CCCCC4)C3=O)c2C)c1 [Example 3-6] | < 0.1
Cc1cc(C(=O)CN2C(=O)NC3(CCC(F)(F)CC3)C2=O)c(C)n1-c1cccc(Cl)c1 [Example 3-7] | < 0.1
COC(=O)c1cccc(-n2c(C)cc(C(=O)CN3C(=O)NC4(CCCCC4)C3=O)c2C)c1 [Example 3-8] | < 0.1
Cc1cc(C(=O)CN2C(=O)NC3(CCC(F)(F)CC3)C2=O)c(C)n1-c1cccnc1 [Example 3-9] | < 0.1
Cc1cncc(-n2c(C)cc(C(=O)CN3C(=O)NC4(CC5CCC4C5)C3=O)c2C)c1 (centres unmarked) [Example 3-10] | < 0.1
Cc1cncc(-n2c(C)cc(C(=O)CN3C(=O)NC4(CCCCC4)C3=O)c2C)c1 [Example 3-11] | < 0.1
Cc1cc(C(=O)CN2C(=O)NC3(CCC(F)(F)CC3)C2=O)c(C)n1-c1ccccn1 [Example 3-12] | < 0.1
Cc1cccc(-n2c(C)cc(C(=O)CN3C(=O)NC4(CCC(F)(F)CC4)C3=O)c2C)n1 [Example 3-13] | < 0.1
Cc1cccc(-n2c(C)cc(C(=O)CN3C(=O)NC4(CCCCCC4)C3=O)c2C)n1 [Example 3-14] | < 0.1
Cc1cccc(-n2c(C)cc(C(=O)CN3C(=O)NC4(CCC(C(F)(F)F)CC4)C3=O)c2C)n1 (centres unmarked) [Example 3-15] | < 0.1
Cc1cc(C)nc(-n2c(C)cc(C(=O)CN3C(=O)NC4(CCC(F)(F)CC4)C3=O)c2C)c1 [Example 3-16] | < 0.1
Cc1cnc(-n2c(C)cc(C(=O)CN3C(=O)NC4(CCC(F)(F)CC4)C3=O)c2C)s1 [Example 3-17] | < 0.1
Cc1cc(C(=O)CN2C(=O)NC3(CCC(F)(F)CC3)C2=O)c(C)n1-c1noc2ccccc12 [Example 3-18] | < 0.1
Cc1cc(C(=O)CN2C(=O)NC3(CCC(F)(F)CC3)C2=O)c(C)n1-c1cncc2ccccc12 [Example 3-19] | < 0.1
Cc1cc(C(=O)CN2C(=O)NC3(CCC(F)(F)CC3)C2=O)c(C)n1-c1ccc2ccccc2n1 [Example 3-20] | < 0.5
Cc1cc(C(=O)CN2C(=O)NC3(CCC(F)(F)CC3)C2=O)c(C)n1-c1nnn(C)n1 [Example 3-21] | < 0.5
Cc1cc(C(=O)CN2C(=O)NC3(CCCCC3)C2=O)c(C)n1-c1cccc(OCC2CC2)n1 [Example 3-28, 3-(2-(1-(6-(cyclopropylmethoxy)pyridin-2-yl)-2,5-dimethyl-1H-pyrrol-3-yl)-2-oxoethyl)-1,3-diazaspiro[4.5]decane-2,4-dione] | < 0.5
Cc1cc(C(=O)CN2C(=O)NC3(CCCCC3)C2=O)c(C)n1-c1cccc(N2CCCC(O)C2)n1 (centres unmarked) [Example 3-29, 3-(2-(1-(6-(3-hydroxypiperidin-1-yl)pyridin-2-yl)-2,5-dimethyl-1H-pyrrol-3-yl)-2-oxoethyl)-1,3-diazaspiro[4.5]decane-2,4-dione] | < 0.5

More lines, now with the values ahead:

IC50 [µM] | Structure (SMILES)
< 0.1 | Cc1c(C(=O)CN2C(=O)NC3(CCC(F)(F)CC3)C2=O)nn(C)c1-c1ccccc1 [Example 4-1]
< 0.1 | Cc1c(C(=O)CN2C(=O)NC3(CCCCC3)C2=O)nn(C)c1-c1ccccc1 [Example 4-2]
< 0.1 | Cc1cc(C(=O)CN2C(=O)NC3(CCC(F)(F)CC3)C2=O)n(C)c1-c1ccccc1 [Example 4-3]
< 0.1 | Cn1c(-c2ccccc2)cnc1C(=O)CN1C(=O)NC2(CCC(F)(F)CC2)C1=O [Example 4-4]
< 0.1 | Cc1nc(C(=O)CN2C(=O)NC3(CCC(F)(F)CC3)C2=O)sc1-c1ccccc1 [Example 4-5]
< 0.1 | Cc1c(C(=O)CN2C(=O)NC3(CCC(F)(F)CC3)C2=O)ccn1-c1ccccc1 [Example 4-6]
< 0.5 | Cc1c(C(=O)CN2C(=O)NC3(CCC(F)(F)CC3)C2=O)nn(C)c1-c1cccnc1 [Example 4-7]
< 0.5 | Cc1c(C(=O)CN2C(=O)NC3(CCCCC3)C2=O)nn(C)c1-c1cccnc1 [Example 4-8]
< 0.5 | Cc1c(C(=O)CN2CC3(CCC(F)(F)CC3)OC2=O)ccn1-c1ccccc1 [Example 4-9]
< 0.5 | Cn1c(C(=O)CN2C(=O)NC3(CCC(F)(F)CC3)C2=O)cnc1-c1ccccc1 [Example 4-11]
< 0.5 | Cc1ccccc1-n1ncc(C(=O)CN2C(=O)NC3(CCC(F)(F)CC3)C2=O)c1C [Example 4-12]
< 0.1 | O=C(CN1C(=O)NC2(CCC(F)(F)CC2)C1=O)c1ccc(-c2cccnc2)nc1 [Example 5-1]
< 0.1 | O=C(CN1C(=O)NC2(CCCCC2)C1=O)c1ccc(-c2cccnc2)nc1 [Example 5-2]
< 0.1 | COc1cc(C(=O)CN2C(=O)NC3(CCC(F)(F)CC3)C2=O)ccc1-c1cccnc1 [Example 5-3]
< 0.5 | COc1cc(C(=O)CN2C(=O)NC3(CCC(F)(F)CC3)C2=O)ccc1-c1cccc(F)c1 [Example 5-4]
< 0.1 | COc1cc(C(=O)CN2C(=O)NC3(CCC(F)(F)CC3)C2=O)ccc1-c1ccccc1C#N [Example 5-5]
< 0.1 | O=C(CN1C(=O)NC2(CCC(F)(F)CC2)C1=O)c1ccc(-n2ncc3ccccc32)cc1 [Example 5-6]
< 0.01 | O=C(CN1C(=O)NC2(CCC(F)(F)CC2)C1=O)c1ccc(-n2cnc3ccccc32)cc1 [Example 5-7]
< 0.1 | Cc1nc2ccccc2n1-c1ccc(C(=O)CN2C(=O)NC3(CCC(F)(F)CC3)C2=O)cc1 [Example 5-8]
< 0.01 | O=C(CN1C(=O)NC2(CCC(F)(F)CC2)C1=O)c1ccc(-n2cnc3cccnc32)cc1 [Example 5-9]
< 0.01 | Cc1nc2cccnc2n1-c1ccc(C(=O)CN2C(=O)NC3(CCC(F)(F)CC3)C2=O)cc1 [Example 5-10]
< 0.1 | O=C(CN1C(=O)NC2(CCC(F)(F)CC2)C1=O)c1ccc(-n2cnc3ncccc32)cc1 [Example 5-11]
< 0.1 | O=C(CN1C(=O)NC2(CCC(F)(F)CC2)C1=O)c1ccc(-n2cnc3ccccc32)nc1 [Example 5-12]
